In PubChem BioAssay AID1918949 (Molecular Pharmacology Branch, DTP, NCI, 2023):

Tested on: K24384-001-R-PDC complex spheroid viability
Experiment: Anticancer human tumor K24384-001-R-PDC patient-derived pancreatic adenocarcinoma cell line growth inhibition
Conditions: for IC50: curve of first compound; for viability, T/C: stronger effect = lower value
Summary of the method: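 Drug combinations with the LSD1 inhibitor iadademstat tested on tumor cells co-cultured as spheroids with endothelial cells and mesenchymal stem cells. Concentrations descended in half-log increments from clinical Cmax or 10 microM.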

[1] = second compound 0.1 µM, first compound 0.00949 µM
[2] = second compound 0.1 µM, first compound 0.03 µM
[3] = second compound 0.1 µM, first compound 0.0949 µM
[4] = second compound 0.1 µM, first compound 0.3 µM
[5] = second compound 0.1 µM, first compound 0.949 µM
[6] = second compound 0.1 µM, first compound 3 µM
[7] = second compound 0.316 µM, first compound 0.00949 µM
[8] = second compound 0.316 µM, first compound 0.03 µM
[9] = second compound 0.316 µM, first compound 0.0949 µM
[10] = second compound 0.316 µM, first compound 0.3 µM
[11] = second compound 0.316 µM, first compound 0.949 µM
[12] = second compound 0.316 µM, first compound 3 µM
[13] = second compound 1 µM, first compound 0.00949 µM
[14] = second compound 1 µM, first compound 0.03 µM
[15] = second compound 1 µM, first compound 0.0949 µM
[16] = second compound 1 µM, first compound 0.3 µM
[17] = second compound 1 µM, first compound 0.949 µM
[18] = second compound 1 µM, first compound 3 µM
[19] = second compound 3.16 µM, first compound 0.00949 µM
[20] = second compound 3.16 µM, first compound 0.03 µM
[21] = second compound 3.16 µM, first compound 0.0949 µM
[22] = second compound 3.16 µM, first compound 0.3 µM
[23] = second compound 3.16 µM, first compound 0.949 µM
[24] = second compound 3.16 µM, first compound 3 µM
[25] = second compound 10 µM, first compound 0.00949 µM
[26] = second compound 10 µM, first compound 0.03 µM
[27] = second compound 10 µM, first compound 0.0949 µM
[28] = second compound 10 µM, first compound 0.3 µM
[29] = second compound 10 µM, first compound 0.949 µM
[30] = second compound 10 µM, first compound 3 µM
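Note: spheroids exposed to agents for seven days before luminescence viability reading.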
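Throughout, for viability, T/C: 100% = DMSO vehicle control viability.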

Compound `Cn1ncnc1C1c2n[nH]c(=O)c3cc(F)cc(c23)NC1c1ccc(F)cc1` (stereo not given) + NC1CC1c1ccc(-c2cccc(O)c2)cc1 has an IC50 (second compound 0.1 µM) of over 100 nM, an IC50 (second compound 0.316 µM) of over 100 nM and an IC50 (second compound 1 µM) of over 100 nM. For the same compound, the IC50 (second compound 3.16 µM) was over 100 nM, the IC50 (second compound 10 µM) was over 100 nM and the viability, T/C (second compound 0.1 µM, first compound 0.000316 µM) was 92.8%. It also gave a viability, T/C (second compound 0.1 µM, first compound 0.001 µM) of 121%, a viability, T/C (second compound 0.1 µM, first compound 0.00316 µM) of 104% and a viability, T/C (second compound 0.1 µM, first compound 0.01 µM) of 88.4%. For the same compound, the viability, T/C (second compound 0.1 µM, first compound 0.0316 µM) was 77.6%, the viability, T/C (second compound 0.1 µM, first compound 0.1 µM) was 77.8% and the viability, T/C (second compound 0.316 µM, first compound 0.000316 µM) was 101%. It also gave a viability, T/C (second compound 0.316 µM, first compound 0.001 µM) of 105%, a viability, T/C (second compound 0.316 µM, first compound 0.00316 µM) of 84.4% and a viability, T/C (second compound 0.316 µM, first compound 0.01 µM) of 85.8%. The viability, T/C (second compound 0.316 µM, first compound 0.0316 µM) was 93.8%, the viability, T/C (second compound 0.316 µM, first compound 0.1 µM) was 73.3% and the viability, T/C (second compound 1 µM, first compound 0.000316 µM) was 108%. It also gave a viability, T/C (second compound 1 µM, first compound 0.001 µM) of 96.7%, a viability, T/C (second compound 1 µM, first compound 0.00316 µM) of 84.5% and a viability, T/C (second compound 1 µM, first compound 0.01 µM) of 94.2%. It also gave a viability, T/C (second compound 1 µM, first compound 0.0316 µM) of 78.3%, a viability, T/C (second compound 1 µM, first compound 0.1 µM) of 102% and a viability, T/C (second compound 3.16 µM, first compound 0.000316 µM) of 91.7%. The viability, T/C (second compound 3.16 µM, first compound 0.001 µM) was 96.9%, the viability, T/C (second compound 3.16 µM, first compound 0.00316 µM) was 93.6% and the viability, T/C (second compound 3.16 µM, first compound 0.01 µM) was 101%. The viability, T/C (second compound 3.16 µM, first compound 0.0316 µM) was 102%, the viability, T/C (second compound 3.16 µM, first compound 0.1 µM) was 75.8% and the viability, T/C (second compound 10 µM, first compound 0.000316 µM) was 108%. The viability, T/C (second compound 10 µM, first compound 0.001 µM) was 111%, the viability, T/C (second compound 10 µM, first compound 0.00316 µM) was 126% and the viability, T/C (second compound 10 µM, first compound 0.01 µM) was 94.9%. The viability, T/C (second compound 10 µM, first compound 0.0316 µM) was 96% and the viability, T/C (second compound 10 µM, first compound 0.1 µM) was 86.5%.

`NS(=O)(=O)OCC1CC(n2ccc3c(NC4CCc5ccccc54)ncnc32)CC1O` (stereo not given) + NC1CC1c1ccc(-c2cccc(O)c2)cc1 showed an IC50 (second compound 0.1 µM) of 439 nM, an IC50 (second compound 0.316 µM) of 570 nM and an IC50 (second compound 1 µM) of 479 nM. For the same compound, the IC50 (second compound 3.16 µM) was 420 nM, the IC50 (second compound 10 µM) was 512 nM and the viability, T/C [1] was 124%. It also gave a viability, T/C [2] of 155%, a viability, T/C [3] of 154% and a viability, T/C [4] of 58.9%. For the same compound, the viability, T/C [5] was 36.9%, the viability, T/C [6] was 27% and the viability, T/C [7] was 128%. The viability, T/C [8] was 156%, the viability, T/C [9] was 135% and the viability, T/C [10] was 71.1%. It also gave a viability, T/C [11] of 37.5%, a viability, T/C [12] of 25.4% and a viability, T/C [13] of 114%. It also gave a viability, T/C [14] of 155%, a viability, T/C [15] of 146% and a viability, T/C [16] of 62.5%. The viability, T/C [17] was 36.6%, the viability, T/C [18] was 26.9% and the viability, T/C [19] was 110%. For the same compound, the viability, T/C [20] was 148%, the viability, T/C [21] was 138% and the viability, T/C [22] was 55.4%. The viability, T/C [23] was 43.1%, the viability, T/C [24] was 30.8% and the viability, T/C [25] was 155%. The viability, T/C [26] was 151%, the viability, T/C [27] was 114% and the viability, T/C [28] was 61.1%. For the same compound, the viability, T/C [29] was 40.8% and the viability, T/C [30] was 23%.

For `O=C(C=Cc1cccc(S(=O)(=O)Nc2ccccc2)c1)NO` + NC1CC1c1ccc(-c2cccc(O)c2)cc1, the IC50 (second compound 0.1 µM) was 240 nM, the IC50 (second compound 0.316 µM) was 233 nM and the IC50 (second compound 1 µM) was 229 nM. It also gave an IC50 (second compound 3.16 µM) of 235 nM, an IC50 (second compound 10 µM) of 185 nM and a viability, T/C [1] of 105%. The viability, T/C [2] was 111%, the viability, T/C [3] was 95.5% and the viability, T/C [4] was 39.3%. It also gave a viability, T/C [5] of 3.97%, a viability, T/C [6] of 2.49% and a viability, T/C [7] of 90%. For the same compound, the viability, T/C [8] was 108%, the viability, T/C [9] was 117% and the viability, T/C [10] was 34.4%. The viability, T/C [11] was 4.35%, the viability, T/C [12] was 1.43% and the viability, T/C [13] was 80.9%. For the same compound, the viability, T/C [14] was 113%, the viability, T/C [15] was 98.1% and the viability, T/C [16] was 35.6%. For the same compound, the viability, T/C [17] was 5.51%, the viability, T/C [18] was 0.1% and the viability, T/C [19] was 85%. The viability, T/C [20] was 124%, the viability, T/C [21] was 103% and the viability, T/C [22] was 35.5%. The viability, T/C [23] was 4.17%, the viability, T/C [24] was 0.1% and the viability, T/C [25] was 81.1%. The viability, T/C [26] was 114%, the viability, T/C [27] was 70.7% and the viability, T/C [28] was 32.7%. It also gave a viability, T/C [29] of 5.8% and a viability, T/C [30] of 0.18%.
